The supplement of paper PMC10307832

Legend:
Assay in all cases: relative viability (nuclei count vs DMSO), 5 days (fraction); higher = more cells survive
[1] = compound: CN(c1ncccc1CNc1nc(Nc2ccc3c(c2)CC(=O)N3)ncc1C(F)(F)F)S(C)(=O)=O + Nc1nc2[nH]cc(CCc3ccc(C(=O)N[C@@H](CCC(=O)O)C(=O)O)cc3)c2c(=O)[nH]1 [Pemetrexed] (partner 0.2 µM)
How it was run: (§1)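 The day after seeding in 1536-well plates, lung cancer cell lines were treated by pin tool with a single drug, or with a fixed anchor-drug dose together with five library-drug doses (not always all listed) in √10 steps. After 5 days, a combined fix-and-stain solution (final 0.05% Triton X-100, 1% formaldehyde, 1 ug/ml Hoechst) was added. Nuclei counted on 4× images gave relative viability as treated counts over vehicle counts, reported as the median of duplicate plates.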

[2] = compound: CN(c1ncccc1CNc1nc(Nc2ccc3c(c2)CC(=O)N3)ncc1C(F)(F)F)S(C)(=O)=O + Cc1nc(Nc2ncc(C(=O)Nc3c(C)cccc3Cl)s2)cc(N2CCN(CCO)CC2)n1 [Dasatinib] (partner 0.075 µM)
How it was run: as §1

[3] = compound: CN(c1ncccc1CNc1nc(Nc2ccc3c(c2)CC(=O)N3)ncc1C(F)(F)F)S(C)(=O)=O + CS(=O)(=O)CCNCc1ccc(-c2ccc3ncnc(Nc4ccc(OCc5cccc(F)c5)c(Cl)c4)c3c2)o1 [Lapatinib] (partner 2 µM)
How it was run: as §1

[4] = compound: CN(c1ncccc1CNc1nc(Nc2ccc3c(c2)CC(=O)N3)ncc1C(F)(F)F)S(C)(=O)=O + C[C@@H](Oc1cc(-c2cnn(C3CCNCC3)c2)cnc1N)c1c(Cl)ccc(F)c1Cl [Crizotinib] (partner 1 µM)
How it was run: as §1

Cell Line	relative viability ([1]; first compound 0.01 µM)	relative viability ([1]; first compound 0.03162 µM)	relative viability ([1]; first compound 0.1 µM)	relative viability ([1]; first compound 0.3162 µM)	relative viability ([1]; first compound 1 µM)	relative viability ([2]; first compound 0.01 µM)	relative viability ([2]; first compound 0.03162 µM)	relative viability ([2]; first compound 0.1 µM)	relative viability ([2]; first compound 0.3162 µM)	relative viability ([2]; first compound 1 µM)	relative viability ([3]; first compound 0.01 µM)	relative viability ([3]; first compound 0.03162 µM)	relative viability ([3]; first compound 0.1 µM)	relative viability ([3]; first compound 0.3162 µM)	relative viability ([3]; first compound 1 µM)	relative viability ([4]; first compound 0.01 µM)	relative viability ([4]; first compound 0.03162 µM)	relative viability ([4]; first compound 0.1 µM)	relative viability ([4]; first compound 0.3162 µM)	relative viability ([4]; first compound 1 µM)
NCI-H522	1.21	0.923	1.03	0.899	1.06	0.889	0.832	0.95	0.725	0.979										
ABC-1						0.574	0.633	0.559	0.54	0.587	1.29	1.15	1.36	1.13	1.21	1.12	1.21	1.09	1.15	1.17
NCI-H1793	1.05	0.912	0.934	0.919	0.931	0.375	0.336	0.409	0.311	0.353	0.542	0.654	0.79	0.575	0.691					
NCI-H1395	1	0.882	0.865	0.98	0.909	0.461	0.374	0.359	0.414	0.386	0.934	0.974	0.998	1.23	1.19					
NCI-H1299											1.03	0.949	1	0.988	0.972	0.989	1.02	0.979	0.995	0.955
ChaGo-K-1	0.252	0.254	0.264	0.258	0.246	0.656	0.531	0.52	0.614	0.531						1.1	1.21	1.08		1.05
NCI-H2342	0.775	0.885	0.801	0.789	0.757	0.32	0.306	0.306	0.286	0.297										
A549											1	1.06	0.971	0.928	0.915	0.762	0.799	0.803	0.797	0.526
IA-LM											0.884	0.82	0.887	0.608	0.56	0.862	0.924	0.908	0.91	0.714
LCLC-103H	0.476	0.474	0.488	0.541	0.463	0.47	0.36	0.481	0.442	0.332						1.14	1.08	1.11	0.906	0.895
Calu-6											1.05	1.12	1	1	0.912	0.809	0.828	0.774	0.725	0.546
